Bounds are passed on as bounds.

This is an account of results in US8609674B2, “Potassium channel modulators” (AbbVie Inc., priority 2010, dated 2013).

For experiment [1], the target named is T1, human KCNQ5 (Homo sapiens, UniProt Q9NR82).
T1 construct: expressed in transfected cells; host or cells: HEK293
As to the kind of experiment: KCNQ5 thallium influx FLIPR TETRA assay. The format is cell-based. Particulars: for EC50: HEK293 cells stably expressing human KCNQ5, Tl+ influx; for Emax: maximum response relative to 10 μM retigabine (=100%), read-out: KCNQ5 Max. %. As for the experimental part: (§1) The following example describes the assay that may be used to identify compounds that activate KCNQ4 or KCNQ5 channels.
(§2) The assays were performed using a FLIPR^TETRA (Molecular Devices, Sunnyvale, Calif.) in 384-well format. HEK293 cells stably expressing human KCNQ4 or KCNQ5 were seeded in 384-well, black-walled, clear-bottomed, poly-D-lysine coated plates (Greiner Bio-One, Germany) at a density of 1.5×10^4 cells per well, 24 hours before the assay. On the assay day, BTC-AM dye was loaded into the cells by replacing the cell culture medium with 30 μL/well of 2.8 μM dye in DPBS. Dye loading was allowed to proceed for 2 hours at room temperature and then cells were washed once in 30 μL/well of assay buffer (in mM: 10 HEPES pH 7.3, 5 glucose, 140 Na-gluconate, 2.5 K-gluconate, 3.6 Ca-gluconate, 2 MgSO4, 0.1 Ouabain) to remove unloaded dye. Cells were incubated in 30 μL of assay buffer before loading onto a FLIPR^TETRA system. Compounds to be assayed were added to the cells as 4× of final concentration in 15 μL of assay buffer and incubated for 4 minutes at room temperature. The influx signal was initiated by adding 15 μL of assay buffer containing 4.2 mM TlNO3 and 7 mM K2SO4. Tl^+ influx signals were recorded for 3 minutes. Tl^+ influx signal was quantified as light unit changes after Tl^+ addition using the “SUM” statistic from the FLIPR^TETRA software. Sums of the responses over basal responses were plotted versus concentrations of test compounds to obtain an EC50 value and the points fit with a nonlinear regression curve using GraphPad Prism software (GraphPad Software Inc., San Diego, Calif.). EC50 values were calculated from the resulting sigmoidal dose-response curves. The maximum response for each test compound was determined relative to the response produced by 10 μM retigabine. The maximum response of retigabine at 10 μM was set at 100%.

Experiment [2] addresses T2, human KCNQ2 and KCNQ3 subunits (KCNQ2/3 channels) (Homo sapiens, UniProt O43525+O43526).
T2 construct: expressed in transfected cells; host or cells: HEK293
As to the kind of experiment: KCNQ2/3 thallium influx FLIPR assay (BTC-AM dye). The format is cell-based. The following applies: for EC50: HEK293 cells stably expressing human KCNQ2 and KCNQ3, Tl+ influx; for Emax: maximum response relative to 10 μM retigabine (=100%), read-out: KCNQ2/3 Max. %. As for the experimental part:
The following example describes the assay that may be used to identify compounds that activate KCNQ2/3 channels.
HEK293 cells stably expressing human KCNQ2 and KCNQ3 subunits were seeded in 96-well, black-walled, clear-bottomed, poly-D-lysine coated plates (BD Biosciences, Bedford, Mass.) at a density of 1×10^5 cells per well 24 hours before the assay. On the assay day, BTC-AM dye (Invitrogen, Carlsbad, Calif.) was loaded into the cells by replacing the cell culture medium with 55 μL/well of 3 μg/ml dye in Dulbecco's Phosphate Buffered Saline (DPBS) (Invitrogen). Dye loading was allowed to proceed for 2 hours at room temperature and then cells were washed twice with 50 μL/well of assay buffer (in mM: 10 HEPES pH 7.3, 5 glucose, 140 Na-gluconate, 2.5 K-gluconate, 3.6 Ca-gluconate, 2 MgSO4, 0.1 Ouabain) to remove unloaded dye. Cells were incubated in 50 μL of assay buffer before loading onto a FLIPR system (Molecular Devices, Sunnyvale, Calif.). Various concentrations of compounds to be assayed were added to the cells in 50 μL of assay buffer and incubated for 4 minutes. The fluorescence signal was initiated by adding 100 μL of assay buffer containing 6 mM TlNO3 and 10 mM K2SO4. Fluors were excited using the 488-nm line of an argon laser and emission was filtered using a 540±30 nm bandpass filter. Fluorescent signals were recorded for 3 minutes. Sums of the responses over basal responses were plotted versus concentrations of test compounds to obtain an EC50 value and the points fit with a nonlinear regression curve using GraphPad Prism software (GraphPad Software Inc., San Diego, Calif.). EC50 values were calculated from the resulting sigmoidal dose-response curves. The maximum response for each test compound was determined relative to the response produced by 10 μM retigabine. The maximum response of retigabine at 10 μM was set at 100%.

Experiment [3] addresses T3, human KCNQ4 (Homo sapiens, UniProt P56696).
T3 construct: expressed in transfected cells; host or cells: HEK293
As to the kind of experiment: KCNQ4 thallium influx FLIPR TETRA assay. The format is cell-based. Particulars: for EC50: HEK293 cells stably expressing human KCNQ4, Tl+ influx; for Emax: maximum response relative to 10 μM retigabine (=100%), read-out: KCNQ4 Max. %. As for the experimental part:
as §1, §2

Experiment [4] has as its system capsaicin-induced secondary mechanical hyperalgesia. Briefly: Capsaicin-induced secondary mechanical hypersensitivity. The class given is in vivo, Sprague-Dawley rats. The following applies: rat, about 30 mg/kg i.p., 30 min before testing, 180 min after capsaicin. The source says:
Adult male Sprague-Dawley rats (250-300 g body weight, Charles River Laboratories, Portage, Mich.) were used. Animal handling and experimental protocols were approved by the Institutional Animal Care and Use Committee (IACUC) at Abbott Laboratories. For all surgical procedures, animals were maintained under isoflurane anesthesia (4-5% to induce, 1-3% to maintain), and the incision sites were sterilized using a 10% povidone-iodine solution prior to and after surgeries.
Rats were allowed to acclimate to the study room for 1 hour. They were then briefly restrained, and capsaicin was administered at 10 μg in 10 μl of vehicle (10% ethanol and 2-hydroxypropyl cyclodextrin) by intraplantar injection into the center of the right hind paw. Secondary mechanical hyperalgesia was measured at the heel away from the site of injection at 180 min following capsaicin (Joshi et al 2006, Neuroscience 143, 587-596). Compounds were injected (i.p.) 30 min before testing (150 min post-capsaicin).
Tactile (mechanical) allodynia was measured using calibrated von Frey filaments (Stoelting, Wood Dale, Ill.) as described in Chaplan, S. R., F. W. Bach, J. M. Pogrel, J. M. Chung and T. L. Yaksh, 1994, Quantitative assessment of tactile allodynia in the rat paw, J. Neurosci. Methods, 53, 55. Rats were placed into inverted individual plastic containers (20×12.5×20 cm) on top of a suspended wire mesh grid, and acclimated to the test chambers for 20 minutes. […] A 50% withdrawal threshold was determined using an up-down procedure (Dixon, W. J., 1980, Efficient analysis of experimental observations, Ann. Rev. Pharmacol. Toxicol., 20, 441). […] Tactile allodynia thresholds were also assessed in several control groups, including naive, sham-operated, and saline infused animals as well as in the contralateral paws of nerve-injured rats. To evaluate the anti-nociceptive effects, animals were administered vehicle or test compound and tactile allodynia was assessed 30 minutes after i.p. administration.
Tactile allodynia was measured as described above.

As a reminder, the EC50 is the concentration that produces a half-maximal response. Lower therefore signals higher potency in that assay. For the compound `CCc1nc2ccccc2c(=O)n1NC(=O)C[C@@H]1CC[C@H]2C[C@@H]1C2(C)C` [Example 2, 2-[(1S,2S,5S)-6,6-dimethylbicyclo[3.1.1]hept-2-yl]-N-(2-ethyl-4-oxoquinazolin-3(4H)-yl)acetamide], the values for the EC50 in experiment [1], in experiment [2] and in experiment [3] were > 30 µM, 0.1 to 0.5 µM and > 30 µM, respectively. In addition, the Emax in experiment [1] is 294%; in experiment [2] it was 109%; in experiment [3], 22%. Moreover, the “change in paw withdrawal latency versus vehicle (tactile allodynia)” value in experiment [4] is on record as “statistically significant change in paw withdrawal latency versus vehicle”.
Take `CC1(C)[C@H]2CC[C@@H](CC(=O)Nn3c(C4CC4)nc4ccccc4c3=O)[C@@H]1C2` [Example 5, N-(2-cyclopropyl-4-oxoquinazolin-3(4H)-yl)-2-[(1S,2S,5S)-6,6-dimethylbicyclo[3.1.1]hept-2-yl]acetamide]: the EC50 is > 30 µM in experiment [1], < 0.1 µM in experiment [2] and > 30 µM in experiment [3]. Further, the Emax in experiment [1] was determined as 50%; in experiment [2], 93%; in experiment [3] it was 6%. Further, the “change in paw withdrawal latency versus vehicle (tactile allodynia)” value in experiment [4] is on record as “statistically significant change in paw withdrawal latency versus vehicle”.
Regarding `CC(C)c1nc2ccc(Cl)cc2c(=O)n1NC(=O)C[C@@H]1CC[C@H]2C[C@@H]1C2(C)C` [Example 18, N-[6-chloro-4-oxo-2-(propan-2-yl)quinazolin-3(4H)-yl]-2-[(1S,2S,5S)-6,6-dimethylbicyclo[3.1.1]hept-2-yl]acetamide], the EC50 in experiment [1], in experiment [2] and in experiment [3] was > 30 µM in each case. Besides, the figures for the Emax in experiment [1], in experiment [2] and in experiment [3] were 19%, 8% and 4%, respectively.
For the compound `CCN(CC)c1nc2ccccc2c(=O)n1NC(=O)C[C@@H]1CC[C@H]2C[C@@H]1C2(C)C` [Example 19, N-[2-(diethylamino)-4-oxoquinazolin-3(4H)-yl]-2-[(1S,2S,5S)-6,6-dimethylbicyclo[3.1.1]hept-2-yl]acetamide], the EC50 in experiment [1] was > 30 µM; in experiment [2], 0.1 to 0.5 µM; in experiment [3], > 30 µM. Further, the Emax in experiment [1] came to 5%; in experiment [2], 28%; in experiment [3] it was 8%.
Take `CC(C)c1nc2sccc2c(=O)n1NC(=O)C[C@@H]1CC[C@H]2C[C@@H]1C2(C)C` [Example 20, 2-[(1S,2S,5S)-6,6-dimethylbicyclo[3.1.1]hept-2-yl]-N-[4-oxo-2-(propan-2-yl)thieno[2,3-d]pyrimidin-3(4H)-yl]acetamide]: the EC50 in experiment [1] was > 30 µM; in experiment [2] it was 0.1 to 0.5 µM; in experiment [3] it was 1 to 10 µM. The Emax was 10% in experiment [1], 111% in experiment [2] and 46% in experiment [3].
As to `CC(C)c1nc2ccccc2c(=O)n1NC(=O)C[C@H]1CC[C@H]2C[C@@H]1C2(C)C` [Example 21, 2-[(1S,2R,5S)-6,6-dimethylbicyclo[3.1.1]hept-2-yl]-N-[4-oxo-2-(propan-2-yl)quinazolin-3(4H)-yl]acetamide], the EC50 in experiment [1] was > 30 µM; in experiment [2] it was 0.5 to 1 µM; in experiment [3] it was 0.5 to 1 µM. The Emax in experiment [1] is 14%; in experiment [2], 121%; in experiment [3] it was 25%.
With `CC(C)c1nc2ccccc2c(=O)n1NC(=O)C[C@H]1C[C@H]2C[C@@H](C1F)C2(C)C` (stereo partly drawn) [Example 23, 2-[(1R,3R,5S)-2-fluoro-6,6-dimethylbicyclo[3.1.1]hept-3-yl]-N-[4-oxo-2-(propan-2-yl)quinazolin-3(4H)-yl]acetamide], the EC50 in experiment [1], in experiment [2] and in experiment [3] was 0.1 to 0.5 µM in each case. Also, the Emax in experiment [1] was determined as 633%; in experiment [2] it was 155%; in experiment [3] it was 229%.
Take `CC(C)c1nc2ccccc2c(=O)n1NC(=O)C[C@@H]1[C@H](F)C[C@H]2C[C@@H]1C2(C)C` [Example 24, 2-[(1S,2S,3R,5R)-3-fluoro-6,6-dimethylbicyclo[3.1.1]hept-2-yl]-N-[4-oxo-2-(propan-2-yl)quinazolin-3(4H)-yl]acetamide]: the EC50 in experiment [1] is > 30 µM; in experiment [2] it was < 0.1 µM; in experiment [3], > 30 µM. The Emax was 88% in experiment [1], 25% in experiment [2] and -43% in experiment [3].
On to `CC(C)c1nc2ccccc2c(=O)n1NC(=O)C[C@@H]1C[C@@H]2C[C@H](C1)C2(C)C` [Example 25, 2-[(1R,3s,5S)-6,6-dimethylbicyclo[3.1.1]hept-3-yl]-N-[4-oxo-2-(propan-2-yl)quinazolin-3(4H)-yl]acetamide], for which the values for the EC50 in experiment [1], in experiment [2] and in experiment [3] were > 30 µM, 0.1 to 0.5 µM and > 30 µM, respectively. Further, the values for the Emax in experiment [1], in experiment [2] and in experiment [3] were 15%, 93% and -23%, respectively.
